Laboratory results: ChEMBL document CHEMBL2424571, “Synthesis, molecular docking studies, and in vitro screening of barbiturates/thiobarbiturates as antibacterial and cholinesterase inhibitors” (Med Chem Res, 2013)
Converted amounts (≈) assume the structure as drawn. The source made the active and inactive calls. No cut-off for these calls is given here.

Key:
[1] = target: T1, Acetylcholinesterase (Homo sapiens, UniProt P22303); assay: Inhibition of AChE (unknown origin) using acetyl thiocholine iodide as substrate at 0.25 mM after 30 mins by Ellman's method
T1 sequence (P22303 whole entry): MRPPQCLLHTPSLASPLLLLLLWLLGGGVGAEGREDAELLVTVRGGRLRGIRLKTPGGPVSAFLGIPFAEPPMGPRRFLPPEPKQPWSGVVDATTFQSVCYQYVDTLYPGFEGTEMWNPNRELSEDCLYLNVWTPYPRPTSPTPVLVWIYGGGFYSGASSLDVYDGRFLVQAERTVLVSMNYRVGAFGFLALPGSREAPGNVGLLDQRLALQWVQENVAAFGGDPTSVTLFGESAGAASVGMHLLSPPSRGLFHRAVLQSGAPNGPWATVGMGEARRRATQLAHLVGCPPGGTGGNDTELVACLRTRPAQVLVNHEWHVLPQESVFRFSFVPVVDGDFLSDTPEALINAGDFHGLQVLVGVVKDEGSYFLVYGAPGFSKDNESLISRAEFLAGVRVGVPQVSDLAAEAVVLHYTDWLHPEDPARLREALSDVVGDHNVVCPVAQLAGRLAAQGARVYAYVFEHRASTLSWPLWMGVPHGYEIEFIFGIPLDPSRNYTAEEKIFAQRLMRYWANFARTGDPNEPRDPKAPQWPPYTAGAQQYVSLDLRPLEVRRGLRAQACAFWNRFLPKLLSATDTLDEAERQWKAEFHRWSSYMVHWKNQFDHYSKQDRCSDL

[2] = target: T2, Cholinesterase (Homo sapiens, UniProt P06276); assay: Inhibition of BChE (unknown origin) using butyryl thiocholine iodide as substrate after 30 mins by Ellman's method
T2 sequence (P06276 whole entry): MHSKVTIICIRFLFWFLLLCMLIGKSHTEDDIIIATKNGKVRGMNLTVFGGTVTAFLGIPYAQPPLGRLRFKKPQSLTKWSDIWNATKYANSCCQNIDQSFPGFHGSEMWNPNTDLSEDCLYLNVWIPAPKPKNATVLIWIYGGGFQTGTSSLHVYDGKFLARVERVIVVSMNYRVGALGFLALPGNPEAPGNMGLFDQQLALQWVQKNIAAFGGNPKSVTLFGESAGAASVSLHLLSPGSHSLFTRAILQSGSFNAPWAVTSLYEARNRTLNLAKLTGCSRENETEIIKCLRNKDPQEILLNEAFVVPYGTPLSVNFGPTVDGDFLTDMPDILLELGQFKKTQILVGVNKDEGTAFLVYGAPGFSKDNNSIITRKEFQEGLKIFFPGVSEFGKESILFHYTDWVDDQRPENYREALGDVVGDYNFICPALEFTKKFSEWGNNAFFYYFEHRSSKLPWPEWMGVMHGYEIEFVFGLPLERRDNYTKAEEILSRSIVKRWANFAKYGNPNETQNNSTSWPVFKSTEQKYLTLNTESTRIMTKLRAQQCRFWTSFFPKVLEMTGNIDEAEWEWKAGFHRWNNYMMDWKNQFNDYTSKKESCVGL

[3] = target: T2, Cholinesterase; assay: Inhibition of BChE (unknown origin) using butyryl thiocholine iodide as substrate at 0.25 mM after 30 mins by Ellman's method
[4] = target: T1, Acetylcholinesterase; assay: Inhibition of AChE (unknown origin) using acetyl thiocholine iodide as substrate after 30 mins by Ellman's method
[5] = tested on: Staphylococcus aureus; assay: Antibacterial activity against Staphylococcus aureus at 1 mg/ml after 24 hrs by agar-well diffusion method; format: functional; details: read-out: IZ
[6] = tested on: Escherichia coli; assay: Antibacterial activity against Escherichia coli DH5[alpha] after 18 to 24 hrs by Micro-titer assay; format: functional
[7] = tested on: Pseudomonas aeruginosa; assay: Antibacterial activity against Pseudomonas aeruginosa at 1 mg/ml after 24 hrs by agar-well diffusion method; format: functional; details: for zone of inhibition at 1000 µg/mL: read-out: IZ
[8] = tested on: Escherichia coli; assay: Antibacterial activity against Escherichia coli DH5[alpha] at 1 mg/ml after 24 hrs by agar-well diffusion method; format: functional; details: read-out: IZ
[9] = tested on: Salmonella typhi; assay: Antibacterial activity against Salmonella typhi at 1 mg/ml after 24 hrs by agar-well diffusion method; format: functional, organism-based; details: Salmonella enterica subsp. enterica serovar Typhi
[10] = tested on: Pseudomonas aeruginosa; assay: Antibacterial activity against Pseudomonas aeruginosa after 18 to 24 hrs by Micro-titer assay; format: functional
[11] = tested on: Escherichia coli; assay: Antibacterial activity against Escherichia coli 5604 at 1 mg/ml after 24 hrs by agar-well diffusion method; format: functional, organism-based
[12] = tested on: Staphylococcus aureus; assay: Antibacterial activity against Staphylococcus aureus after 18 to 24 hrs by Micro-titer assay; format: functional
[13] = tested on: Escherichia coli; assay: Antibacterial activity against Escherichia coli DG2 at 1 mg/ml after 24 hrs by agar-well diffusion method; format: functional, organism-based
[14] = tested on: Vibrio cholerae; assay: Antibacterial activity against Vibrio cholerae at 1 mg/ml after 24 hrs by agar-well diffusion method; format: functional, organism-based
[15] = target: T2, Cholinesterase; assay: Inhibition of BChE (unknown origin) using butyryl thiocholine iodide as substrate at 0.5 mM after 30 mins by Ellman's method
[16] = target: T1, Acetylcholinesterase; assay: Inhibition of AChE (unknown origin) using acetyl thiocholine iodide as substrate at 0.5 mM after 30 mins by Ellman's method
[17] = target: T2, Cholinesterase; assay: Inhibition of BChE (unknown origin) using butyryl thiocholine iodide as substrate at 0.125 mM after 30 mins by Ellman's method
[18] = target: T1, Acetylcholinesterase; assay: Inhibition of AChE (unknown origin) using acetyl thiocholine iodide as substrate at 0.125 mM after 30 mins by Ellman's method

SMILES	inhibition [1] [%]	IC50 [2] [µmol]	inhibition [3] [%]	IC50 [4] [µmol]	further results
O=C1NC(=S)NC(=O)C1=CNNC(=S)Nc1ccc(C(F)(F)F)cc1	75.6	8.11	78.2	99.41	–
O=C1NC(=S)NC(=O)C1=CNNC(=S)Nc1ccc(Cl)cc1	62	75.41	81.6	121.11	zone of inhibition at 1000 µg/mL [5]: 15 mm; MIC [6]: 200 µg/mL (≈ 562 µM); inhibition zone (IZ) [7]: inactive; zone of inhibition at 1000 µg/mL [8]: 14 mm; inhibition zone (IZ) [9]: inactive; MIC [10]: 400 µg/mL (≈ 1120 µM); inhibition zone (IZ) [11]: inactive; MIC [12]: 100 µg/mL (≈ 281 µM); inhibition zone (IZ) [13]: inactive; inhibition zone (IZ) [14]: inactive
N#Cc1ccc(NC(=S)NNC=C2C(=O)NC(=O)NC2=O)cc1	11.4	231.61	66.8	–	–
O=C(N[C@H](CO)[C@H](O)c1ccc([N+](=O)[O-])cc1)C(Cl)Cl [CHLORAMPHENICOL]	–	–	–	–	zone of inhibition at 1000 µg/mL [5]: 25 mm; MIC [6]: 1.56 µg/mL (≈ 4.83 µM); zone of inhibition at 1000 µg/mL [7]: 25 mm; zone of inhibition at 1000 µg/mL [8]: 25 mm; inhibition zone (IZ) [9]: inactive; MIC [10]: 1.56 µg/mL (≈ 4.83 µM); inhibition zone (IZ) [11]: inactive; MIC [12]: < 0.78 µg/mL; inhibition zone (IZ) [13]: inactive; inhibition zone (IZ) [14]: inactive
COc1ccc(NC(=S)NNC=C2C(=O)NC(=S)NC2=O)cc1	59.1	56.81	85.4	206.31	–
O=C1NC(=S)NC(=O)C1=CNNC(=S)Nc1ccc(F)cc1	86.9	57.81	88.8	78.41	–
NC(=S)NNC=C1C(=O)NC(=O)NC1=O	65.8	56.51	87.5	119.11	–
CNC(=O)Oc1ccc2c(c1)[C@]1(C)CCN(C)[C@@H]1N2C	92.5	–	92.5	–	–
O=C1NC(=O)C(=CNNC(=S)Nc2cccc(C(F)(F)F)c2)C(=O)N1	–	136.91	–	40.78	inhibition [15]: 75.9%; inhibition [16]: 83.3%
O=C1NC(=S)NC(=O)C1=CNNC(=S)Nc1ccc(Br)cc1	80.4	68.41	84.5	79.21	–
O=C(NNC=C1C(=O)NC(=S)NC1=O)Nc1ccccc1	–	3.31	–	74.21	inhibition [17]: 85.1%; inhibition [18]: 66.8%
O=C1NC(=S)NC(=O)C1=CNNC(=S)Nc1ccccc1	73.2	57.11	83.2	115.11	–
Cc1cccc(Cl)c1NC(=S)NNC=C1C(=O)NC(=O)NC1=O	–	8.81	–	–	inhibition [15]: 75.8%; inhibition [16]: 49.4%
CC(=O)NC=C1C(=O)NC(=O)NC1=O	77.7	116.61	88.3	90.91	zone of inhibition at 1000 µg/mL [5]: 18 mm; MIC [6]: 100 µg/mL (≈ 507 µM); zone of inhibition at 1000 µg/mL [7]: 18 mm; zone of inhibition at 1000 µg/mL [8]: 15 mm; inhibition zone (IZ) [9]: inactive; MIC [10]: 200 µg/mL (≈ 1010 µM); inhibition zone (IZ) [11]: inactive; MIC [12]: 100 µg/mL (≈ 507 µM); inhibition zone (IZ) [13]: inactive; inhibition zone (IZ) [14]: inactive
O=C1NC(=O)C(=CNNC(=O)Nc2ccccc2)C(=O)N1	–	38.51	–	–	inhibition [17]: 79.2%; inhibition [18]: 39.6%
